Measured values from patent US20100317525A1, “HERBICIDAL MIXTURE” (E.I. DU PONT DE NEMOURS AND COMPANY, priority 2007, published 2010).

System: Digitaria nuda
Assay: Test A: postemergence greenhouse control of Digitaria nuda, visual rating
Assay type: in vivo
Settings: postemergence 3-4-leaf stage, 7 DAT, mean of 3 replicates
Procedure: Plastic pots (10-cm square) were filled to the rim with a sandy loam soil having pH of 6.1, 1.4% organic matter and a cation exchange capacity (CEC) of 5.7 milliequivalents per 100 grams (meq/100 g). The soil was tamped firm to a uniform level of 2.5 cm below the rim of each pot. A measured amount of seeds of Digitaria nuda were scattered on the soil surface. Seeded pots were covered with approximately 50 mL of the same planting soil and tamped. The pots were then placed in a greenhouse and watered thoroughly 2-3 times daily as needed. A balanced fertilizer solution was injected into the watering system to provide 218 ppm of nitrogen. Artificial lighting was used to supplement natural light to produce a 14 h photoperiod. Greenhouse temperatures were targeted for 28.8 ° C. in the day and 19.8 ° C. at night.
When the D. nuda plants reached the 3-4-leaf growth stage (8-12 cm height), the pots were sorted into test units for herbicide application. Treatments were replicated three times. The herbicides were diluted in a measured amount of water and then mixed using a magnetic stir bar for 10 minutes before aliquots were taken to make individual treatment solutions. Diuron was in the form of the DuPont product KARMEX, which is a wettable granule formulation containing 80 weight % active ingredient. Hexazinone was in the form of the DuPont product VELPAR DF, which is a wettable granule formulation containing 75 weight % active ingredient. A mixture of hexazinone and diuron in 11:39 weight ratio was in the form of the DuPont product VELPAR-K (VELPAR-K4) 60 WG, which is a wettable granule formulation containing 13.2 weight % hexazinone and 46.8 weight % diuron active ingredients. A mixture of hexazinone and diuron in 1:8 weight ratio was in the form of the DuPont product VELPAR-K8 (marketed in Brazil as ADVANCE Herbicide), which is a wettable granule formulation containing 6.7 weight % hexazinone and 53.3 weight % diuron active ingredients. Tembotrione was in the form of the Bayer product LAUDIS, which was a suspension concentrate formulation stated to contain […] tembotrione active ingredient and 22 g isoxadifen-ethyl (a herbicide safener) per liter. These products were applied alone and in combinations. Application rates of diuron and hexazinone were 1800 and 210 g ai ha^−1, respectively. The application rates of the VELPAR-K4 mixture of hexazinone and diuron (132 g a.i. hexazinone+468 g a.i. diuron/kg of formulated product) and VELPAR-K8 mixture of hexazinone and diuron (67 g a.i. hexazinone+533 g a.i. diuron/kg of formulated product) were 1200 and 1800 g total a.i. ha^−1, respectively. Application rates of tembotrione were 30, 60, 90 and 120 g a.i./ha. (“a.i.” means active ingredient.) The pots were then sprayed through a T-Jet 8002E nozzle using a stationary belt sprayer calibrated to deliver 281 L/ha at 276 kPa. Treatments were replicated three times.
The plants were returned to the greenhouse, and then control was visually evaluated relative to the control plants at 7 days after treatment (DAT). A numerical percent rating system was used to describe the response observed from each treatment on a scale of 0 to 100%, in which 0% indicates no response and 100% indicates plant death or near death. The reported results are the mean averages of the three replicates.
Colby's Equation was used to determine the herbicidal effects expected from the mixtures. […]

| SMILES | % Control Observed (diuron 1800 g a.i./ha (as KARMEX)) | % Control Observed (tembotrione 30 g a.i./ha (as LAUDIS)) | % Control Observed (tembotrione 60 g a.i./ha (as LAUDIS)) | % Control Observed (tembotrione 90 g a.i./ha (as LAUDIS)) | % Control Observed (tembotrione 120 g a.i./ha (as LAUDIS)) |
| --- | --- | --- | --- | --- | --- |
| CN(C)C(=O)Nc1ccc(Cl)c(Cl)c1 [Diuron, N′(3,4-dichlorophenyl)-N,N-dimethylurea] | 20% |  |  |  |  |
| CS(=O)(=O)c1ccc(C(=O)C2C(=O)CCCC2=O)c(Cl)c1COCC(F)(F)F [Tembotrione, 2-[2-chloro-4-(methylsulfonyl)-3-[(2,2,2-trifluoroethoxy)methyl]-benzoyl]-1,3-cyclohexanedione] |  | 37% | 40% | 53% | 60% |
